Test [1] concerns the target T1, PTK2 (Homo sapiens, UniProt Q05397).
T1 construct: purchased Invitrogen PV3832
The test can be described thus: PTK2 Enzyme Test (DELFIA assay, poly-Glu-Tyr substrate). The test is classed as biochemical. The conditions noted are these: active PTK2 enzyme, 50 μM ATP in ATP Mix, 1 h pre-incubation. On the procedure: This test uses active PTK2 enzyme (Invitrogen Code PV3832) and poly-Glu-Tyr (4:1, Sigma P-0275) as the kinase substrate. The kinase activity is detected by means of the phosphorylation of the substrate in a DELFIA™ assay. The phosphorylated substrate is detected with the Europium-labelled phosphotyrosine antibody PY20 (Perkin Elmer, No.: AD0038).
In order to determine concentration-activity curves with PTK2-inhibitors the compounds are serially diluted in 10% DMSO/H2O and 10 μL of each dilution are dispensed per well in a 96-well microtitre plate (clear U-shaped base plate, Greiner No. 650101) (the inhibitors are tested in duplicates) and mixed with 10 μL/well of PTK2 kinase (0.01 μg/well). PTK2 kinase is diluted accordingly beforehand with kinase dilution buffer (20 mM TRIS/HCl pH 7.5, 0.1 mM EDTA, 0.1 mM EGTA, 0.286 mM sodium orthovanadate, 10% glycerol with the addition of freshly prepared BSA (fraction V 1 mg/mL) and DTT (1 mM)). The test compound and the PTK2 kinase are pre-incubated for 1 h at RT and shaken at 500 rpm. Then 20 μL ATP Mix (30 mM TRIS/HCl pH 7.5, 0.02% Brij, 0.2 mM sodium orthovanadate, 10 mM magnesium acetate, 0.1 mM EGTA, 1× Phosphatase Inhibitor Cocktail 1 (Sigma, No.: P2850), 50 μM ATP (Sigma, No.: A3377; 15 mM stock solution)) are added. The reaction is started by the addition of 10 μL/well of poly (Glu,Tyr) substrate (25 μg/well poly (Glu,Tyr), 0.05 μg/well biotinylated poly (Glu,Tyr) dissolved in 250 mM TRIS/HCl pH 7.5, 9 mM DTT)—the final concentration of DMSO is 2%. After 1 h kinase reaction (the plates are shaken at 500 rpm), the reaction is stopped by the addition of 12 μL/well of 100 mM EDTA, pH 8. And shaken for a further 5 min at RT (500 U/min).
55 μL of the reaction mixture are transferred into a streptavidin plate (Strepta Well High Bind (transparent, 96-well) made by Roche, No.: 11989685001) and incubated for 1 h at RT (shaking at 500 rpm). Then the microtitre plate is washed three times with 200 μL/well D-PBS (Invitrogen, No.:14190). 100 μL of 1:2000 diluted DELFIA Eu-N1 Anti-Phosphotyrosine PY20 antibody (Perkin Elmer, No.: AD0038, 1:2000 diluted in DELFIA test buffer (Perkin Elmer, No.: 1244-111)) is then added and it is incubated for 1 h at RT (shaking at 500 rpm). Then the plate is washed three times with 200 μL/well DELFIA washing buffer (Perkin Elmer, No.: 1244-114), 200 μL/well strengthening solution (Perkin Elmer, No.: 1244-105) is added and the whole is incubated for 10 min at RT (shaking at 300 rpm).
The time-delayed europium fluorescence is then measured in a microtitre plate reader (Victor, Perkin Elmer). The positive control consists of wells that contain solvent (2% DMSO in test buffer) and display uninhibited kinase activity. Wells that contain test buffer instead of enzyme act as a control for the background kinase activity.
The IC50 values are determined from concentration-activity analyses by iterative calculation using a sigmoidal curve analysis algorithm (FIFTY, based on GraphPAD Prism Version 3.03) with a variable Hill coefficient.

Test [2] addresses T2, PTK2-phosphorylation at tyrosine 397 (pY397) (Homo sapiens, UniProt Q05397).
T2 construct: endogenous in cells; host or cells: PC-3 (ATCC CRL-1435)
The test can be described thus: Phospho-PTK2 (pY397) Assay in PC-3 cells. The test is classed as cell-based. Conditions: PC-3 prostate carcinoma cells, 2 h incubation; read-out: PC3pPTK2 Y397 EC50. Here is the method:
This cellular test is used to determine the influence of PTK2-inhibitors on the state of the PTK2-phosphorylation at tyrosine 397 (pY397).
PC-3 cells (prostate carcinoma, ATCC CRL-1435) are grown in cell culture flasks (175 cm^2) with F12 Kaighn's Medium (Gibco, No.: 21127) with the addition of 10% foetal calf serum (Invitrogen, No.: 16000-044). The cultures are incubated in the incubator at 37° C. and 5% CO2 and run twice a week.
For the test, 2×10^4 cells pro well/[…] are plated out in 96-well microtitre plates (Costar, No.: 3598) and incubated overnight in the incubator at 37° C. and 5% CO2. The test compounds (10 μL from serial dilution) are added the next day. The concentration of the test compounds usually covers a range of 50 μM and 0.8 nM. The test compounds (stock solution: 10 mM in 100% DMSO) are diluted in medium/medium 10% DMSO such that the final concentration is 1% DMSO. The cells are then incubated in the incubator at 37° C. and 5% CO2 for 2 h. Then the culture supernatant is removed and the cells are fixed with 150 μL 4% formaldehyde in D-PBS for 20 min at RT. The cell lawn is washed five times with 200 μL 0.1% Triton X-100 in D-PBS for 5 min in each case and then incubated for 90 min with blocking buffer (5% skimmed milk powder (Maresi Fixmilch) in TBST (25 mM Tris/HCl, pH 8.0, 150 mM NaCl, 0.05% Tween 20). The blocking buffer is replaced by 50 μL of the first antibody anti-phospho PTK2 [pY397] rabbit monoclonal (Invitrogen/Biosource, No.: 44-625G), which is diluted 1:200 in blocking buffer. For control purposes, alternatively a PTK2 [total] antibody (clone 4.47 mouse monoclonal, Upstate, No.: 05-537), diluted 1:400 in blocking buffer is used. This incubation is carried out at 4° C. overnight. Then the cell lawn is washed five times with 100 μL of 0.1% Tween in D-PBS for 5 min in each case and 50 μL/well of second antibody are added. In order to detect bound phospho-PTK2 [pY397] antibody a goat-anti-rabbit antibody is used which is coupled with horseradish peroxidase (Dako, No.: P0448; 1:500 dilution in blocking buffer). In order to detect bound PTK2 [total]-antibodies a rabbit-anti-mouse antibody is used, which is also coupled with horseradish peroxidase (Dako, No.: PO161; 1:1000 dilution in blocking buffer). This incubation is carried out for 1 h at RT with gentle shaking. The cell lawn is then again washed five times with 100 μL of 0.1% Tween in D-PBS for 5 min in each case. […] The EC50 values are determined from concentration-activity analyses by iterative calculation with the aid of a sigmoidal curve analysis algorithm (FIFTY, based on GraphPAD Prism Version 3.03) with a variable Hill coefficient.

pEC50, pIC50: −log10 of the molar value.

T1 sequence (Q05397 whole entry): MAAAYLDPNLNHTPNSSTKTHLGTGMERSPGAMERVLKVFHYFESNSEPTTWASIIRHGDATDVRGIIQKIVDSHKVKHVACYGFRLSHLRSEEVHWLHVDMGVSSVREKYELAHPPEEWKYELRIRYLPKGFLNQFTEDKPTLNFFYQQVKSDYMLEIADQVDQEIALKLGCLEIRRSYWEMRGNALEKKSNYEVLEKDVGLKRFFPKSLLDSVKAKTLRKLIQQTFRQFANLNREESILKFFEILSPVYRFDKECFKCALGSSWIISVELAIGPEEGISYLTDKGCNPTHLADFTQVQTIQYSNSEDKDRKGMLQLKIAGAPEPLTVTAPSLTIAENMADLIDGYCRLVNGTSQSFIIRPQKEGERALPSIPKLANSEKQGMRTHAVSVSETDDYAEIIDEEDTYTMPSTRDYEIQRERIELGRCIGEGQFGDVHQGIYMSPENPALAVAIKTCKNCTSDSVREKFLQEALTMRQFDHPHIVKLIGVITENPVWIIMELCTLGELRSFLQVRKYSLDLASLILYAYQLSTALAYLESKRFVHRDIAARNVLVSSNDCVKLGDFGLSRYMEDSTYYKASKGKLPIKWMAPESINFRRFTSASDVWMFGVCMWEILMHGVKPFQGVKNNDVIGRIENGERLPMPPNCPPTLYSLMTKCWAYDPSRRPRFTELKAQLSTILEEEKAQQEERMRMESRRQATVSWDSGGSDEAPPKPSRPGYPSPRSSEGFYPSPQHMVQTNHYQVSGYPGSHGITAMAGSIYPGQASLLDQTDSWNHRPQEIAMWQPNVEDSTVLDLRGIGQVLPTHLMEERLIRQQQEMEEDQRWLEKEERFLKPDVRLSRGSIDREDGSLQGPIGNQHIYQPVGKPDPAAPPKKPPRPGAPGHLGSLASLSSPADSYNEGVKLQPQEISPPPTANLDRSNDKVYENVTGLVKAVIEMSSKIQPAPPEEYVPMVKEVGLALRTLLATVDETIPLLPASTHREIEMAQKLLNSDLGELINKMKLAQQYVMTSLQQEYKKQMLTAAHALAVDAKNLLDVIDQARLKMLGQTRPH
T2 sequence (Q05397 whole entry): as above

`COc1cc(C(=O)NC2CCN(C3CCOCC3)CC2)ccc1Nc1ncc(C(F)(F)F)c(NCc2ccc(C)cc2N(C)S(C)(=O)=O)n1` [Example 44]: the pIC50 in test [1] was 8.70. Further, the pEC50 in test [2] was 9.38.

Regarding `CCN1CCC[C@H]1CNC(=O)c1ccc(Nc2ncc(C(F)(F)F)c(NCc3ccc(C)cc3N(C)S(C)(=O)=O)n2)c(OC)c1` [Example 45], the pIC50 in test [1] is 8.52. Also, the pEC50 in test [2] was 9.36.

In test [1], `COc1cc(C(=O)N[C@H]2CCCN(C3CCCC3)C2)ccc1Nc1ncc(C(F)(F)F)c(NCc2ccc(C)cc2N(C)S(C)(=O)=O)n1` [Example 47] gave a pIC50 of 8.22. The pEC50 in test [2] was 9.30.

`COc1cc(C(=O)NC2CCC(NC(C)=O)CC2)ccc1Nc1ncc(C(F)(F)F)c(NCc2ccc(C)cc2N(C)S(C)(=O)=O)n1` (stereo not shown) [Example 48] gave a negative logarithm of the IC50 (pIC50) in test [1] of 8.40. For the same compound, in test [2], the pEC50 is 9.29.

For the compound `COc1cc(C(=O)NC2CCN3CCCC3C2)ccc1Nc1ncc(C(F)(F)F)c(NCc2ccc(C)cc2N(C)S(C)(=O)=O)n1` (stereo not shown) [Example 49], in test [1], the pIC50 is 8.40. Besides, in test [2], the pEC50 is 9.29.

Turning to `CCc1cc(C(=O)NC2CCN(C)CC2)ccc1Nc1ncc(C(F)(F)F)c(NCc2ccc(C)cc2N(C)S(C)(=O)=O)n1` [Example 50], the pIC50 in test [1] was 8.70. For the same compound, the negative-log EC50 (pEC50) in test [2] was 9.28.

`COc1cc(C(=O)NC2CCC(N(C)C)CC2)ccc1Nc1ncc(C(F)(F)F)c(NCc2ccc(C)cc2N(C)S(C)(=O)=O)n1` (stereo not shown) [Example 51] gave a pIC50 in test [1] of 9.00. Also, the pEC50 in test [2] was 9.28.

`COc1cc(C(=O)NC2CCN(C)CC2)ccc1Nc1ncc(C(F)(F)F)c(NCc2ccc(F)cc2N(C)S(C)(=O)=O)n1` [Example 52] had a pIC50 in test [1] of 9.00. In addition, the negative-log EC50 (pEC50) in test [2] was 9.27.

In test [1], `COc1cc(C(=O)N[C@H]2CCCN(C3CCOCC3)C2)ccc1Nc1ncc(C(F)(F)F)c(NCc2ccc(C)cc2N(C)S(C)(=O)=O)n1` [Example 53] showed a pIC50 of 8.30. In addition, in test [2], the pEC50 was 9.27.

For `CNC(=O)c1cc(OC)c(Nc2ncc(C(F)(F)F)c(NCc3ccc(C)cc3N(C)S(C)(=O)=O)n2)cc1C` [Example 54], the negative-log IC50 (pIC50) in test [1] is 8.52. The pEC50 in test [2] is 9.26.

As for `COc1cc(C(=O)NC2CCN(c3ccccc3)CC2)ccc1Nc1ncc(C(F)(F)F)c(NCc2ccc(C)cc2N(C)S(C)(=O)=O)n1` [Example 55], the pIC50 in test [1] is 7.96. Besides, in test [2], the pEC50 was 9.25.

Consider `COc1cc(CN2CCCC2)ccc1Nc1ncc(C(F)(F)F)c(NCc2ccc(C)cc2N(C)S(C)(=O)=O)n1` [Example 56], for which, in test [1], the pIC50 is 8.70. For the same compound, in test [2], the pEC50 was 9.25.

The compound `COc1ccc(CNc2nc(Nc3ccc(C(=O)N[C@H]4CC[C@H](N5CCOCC5)CC4)cc3OC)ncc2C(F)(F)F)c(N(C)S(C)(=O)=O)c1` [Example 57] had a pIC50 in test [1] of 8.70. In addition, the pEC50 in test [2] is 9.24.

Turning to `COc1cc(C(=O)N[C@@H]2CCN(C)C2)c(Cl)cc1Nc1ncc(C(F)(F)F)c(NCc2ccc(C)cc2N(C)S(C)(=O)=O)n1` [Example 58], the pIC50 in test [1] was 8.52. The negative-log EC50 (pEC50) in test [2] is 9.23.

Take `COc1cc(CNC2CCN(C)CC2)ccc1Nc1ncc(C(F)(F)F)c(NCc2ccc(C)cc2N(C)S(C)(=O)=O)n1` [Example 59]: the pIC50 in test [1] is 8.52. For the same compound, the pEC50 in test [2] is 9.23.

The compound `COc1cc(C(=O)NC2CCOCC2)ccc1Nc1ncc(C(F)(F)F)c(NCc2ccc(C)cc2N(C)S(C)(=O)=O)n1` [Example 60] showed a negative logarithm of the IC50 (pIC50) in test [1] of 8.40. For the same compound, the pEC50 in test [2] is 9.22.

`COc1cc(CNC2CCC2)ccc1Nc1ncc(C(F)(F)F)c(NCc2ccc(C)cc2N(C)S(C)(=O)=O)n1` [Example 61]: the pIC50 in test [1] is 8.70. In addition, in test [2], the negative-log EC50 (pEC50) was 9.22.

Take `COc1cc(CNC2CCCC2)ccc1Nc1ncc(C(F)(F)F)c(NCc2ccc(C)cc2N(C)S(C)(=O)=O)n1` [Example 63]: the pIC50 in test [1] was 8.52. For the same compound, the pEC50 in test [2] is 9.20.

In test [1], `COc1cc(C(=O)NC2CCOC2)ccc1Nc1ncc(C(F)(F)F)c(NCc2ccc(C)cc2N(C)S(C)(=O)=O)n1` (stereo not shown) [Example 64] showed a pIC50 of 8.52. Further, in test [2], the pEC50 was 9.17.

`COc1cc(C(=O)N[C@H]2CC[C@@H]3[C@@H](CCN3C)C2)ccc1Nc1ncc(C(F)(F)F)c(NCc2ccc(C)cc2N(C)S(C)(=O)=O)n1` [Example 65]: in test [1], the pIC50 was 8.40. In addition, in test [2], the pEC50 is 9.17.

`CCNCc1ccc(Nc2ncc(C(F)(F)F)c(NCc3ccc(C)cc3N(C)S(C)(=O)=O)n2)c(OC)c1` [Example 66] gave a pIC50 in test [1] of 9.00. Besides, the pEC50 in test [2] is 9.15.

Compound `COc1cc(CNCc2ccccc2)ccc1Nc1ncc(C(F)(F)F)c(NCc2ccc(C)cc2N(C)S(C)(=O)=O)n1` [Example 67] gave a pIC50 in test [1] of 8.15. In test [2], the pEC50 was 9.15.

The compound `COc1cc(NC(C)=O)c(C)cc1Nc1ncc(C(F)(F)F)c(NCc2ccc(C)cc2N(C)S(C)(=O)=O)n1` [Example 68] gave a pIC50 in test [1] of 8.70. In addition, in test [2], the pEC50 was 9.14.

On to `CNC(=O)c1ccc(Nc2ncc(C(F)(F)F)c(NCc3ccc(C)cc3N(C)S(C)(=O)=O)n2)c(OC)c1` [Example 69], for which, in test [1], the pIC50 was 9.00. In test [2], the pEC50 is 9.13.

Take `COc1cc(C(=O)NCC2CCCO2)ccc1Nc1ncc(C(F)(F)F)c(NCc2ccc(C)cc2N(C)S(C)(=O)=O)n1` (stereo not shown) [Example 70]: in test [1], the pIC50 is 8.40. In test [2], the negative-log EC50 (pEC50) was 9.13.

Turning to `COc1cc(C(=O)NC2CC(N3CCOCC3)C2)ccc1Nc1ncc(C(F)(F)F)c(NCc2ccc(C)cc2N(C)S(C)(=O)=O)n1` (stereo not shown) [Example 71], the pIC50 in test [1] is 8.52. Also, the pEC50 in test [2] was 9.13.

The term pIC50 denotes the negative decadic logarithm of the IC50, by convention in mol/L. As usually defined, the pEC50 is the EC50 on a negative log10 scale, so that one unit is a factor of ten.
